What was measured:
[1] = test system: HALO1, novel gene fragment, 86 bp; assay: GENECALLING differential gene expression, striatum of haloperidol-treated rats; assay type: in vivo, rat
Description: (§1) Accordingly, the differentially expressed genes were identified by treating Wistar rats with haloperidol (0.041 mg/kg/d for 3 days via continuous infusion Alza pump), or rats treated with vehicle only for 3 days.
(§2) Rats were then sacrificed, their brains were removed, and total RNA was recovered from the microdissected striatum. cDNA was prepared and the resulting samples were processed through 140 subsequences of GENECALLING™ differential expression analysis as described in U.S. Pat. No. 5,871,697 and in Shimkets et al., Nature Biotechnology 17:198-803 (1999).
(§3) 101 gene fragments were initially found to be differentially expressed in rat striatum in response to haloperidol. The differential expression of 50 of the gene fragments was confirmed using a unlabeled oligonucleotide competition assay as described in Shimkets et al., Nature Biotechnology 17:198-803. 32 single copy nucleic acid sequences genes and 5 repetitive copy nucleic acid sequences differentially expressed in haloperidol and vehicle treated striatum were selected for further analysis elements.

[2] = test system: HALO10, novel gene fragment, 89% similar to human rab5c-like protein [U11293]; assay: as above; assay type: in vivo, rat
Description: as §1, §2, §3

[3] = test system: HALO11, novel gene fragment, 88% similar to human KIAA0383 gene [AB002381]; assay: as above; assay type: in vivo, rat
Description: as §1, §2, §3

[4] = test system: HALO13, novel gene fragment, 80% similar to human suilisol [L26247]; assay: as above; assay type: in vivo, rat
Description: as §1, §2, §3

[5] = test system: HALO16, novel gene fragment, 70% similar to E. coli putative ATP-dependent RNA helicase RHLB [P24229]; assay: as above; assay type: in vivo, rat
Description: as §1, §2, §3

[6] = test system: HALO17, novel gene fragment, 65% similarity to 5′ region of human NOF1 [U39400]; assay: as above; assay type: in vivo, rat
Description: as §1, §2, §3

[7] = test system: HALO18, novel gene fragment, encoded polypeptide 80% similar to human predicted protein DJ257A7.1 [AL008729]; assay: as above; assay type: in vivo, rat
Description: as §1, §2, §3

[8] = test system: HALO19, Ribosomal protein L18a [X14181]; assay: as above; assay type: in vivo, rat
Description: as §1, §2, §3

[9] = test system: HALO2, novel gene fragment, 121 bp; assay: as above; assay type: in vivo, rat
Description: as §1, §2, §3

[10] = test system: HALO20, Inositol 1.4.5-triphosphate 3-kinase [M29787]; assay: as above; assay type: in vivo, rat
Description: as §1, §2, §3

[11] = test system: HALO21, 2′-3′ cyclic nucleotide 3′ phosphodiesterase [CNPII] [L16532]; assay: as above; assay type: in vivo, rat
Description: as §1, §2, §3

[12] = test system: HALO22, NGFI-B [U17254]; assay: as above; assay type: in vivo, rat
Description: as §1, §2, §3

[13] = test system: HALO23, Neurogranin [L09119]; assay: as above; assay type: in vivo, rat
Description: as §1, §2, §3

[14] = test system: HALO24, V-1 protein; assay: as above; assay type: in vivo, rat
Description: as §1, §2, §3

[15] = test system: HALO25, 190 kDa ankyrin isoform; assay: as above; assay type: in vivo, rat
Description: as §1, §2, §3

[16] = test system: HALO26, Cathepsin S; assay: as above; assay type: in vivo, rat
Description: as §1, §2, §3

[17] = test system: HALO27, D-Amino acid oxidase; assay: as above; assay type: in vivo, rat
Description: as §1, §2, §3

[18] = test system: HALO28, Stomach nonmuscle Ca^+2 ATPase [J04023]; assay: as above; assay type: in vivo, rat
Description: as §1, §2, §3

[19] = test system: HALO33, NGF1-A; assay: as above; assay type: in vivo, rat
Description: as §1, §2, §3

[20] = test system: HALO34, JunB [X54686]; assay: as above; assay type: in vivo, rat
Description: as §1, §2, §3

[21] = test system: HALO35, Synaptophysin [p38]; assay: as above; assay type: in vivo, rat; settings: present studies
Description: as §1, §2, §3

[22] = test system: HALO6, novel gene fragment, 95% similarity to mouse quaking gene type 1 [U44940]; assay: as above; assay type: in vivo, rat
Description: as §1, §2, §3

[23] = test system: HALO7, novel gene fragment, 86% similar to human U1 snRNP 70 kDa protein; assay: as above; assay type: in vivo, rat
Description: as §1, §2, §3

[24] = test system: HALO8, novel gene fragment, 91% similar to mouse phosphatidylinositol 3 kinase 110 kDa subunit [U03279]; assay: as above; assay type: in vivo, rat
Description: as §1, §2, §3

[25] = test system: HALO9, novel gene fragment, 98% similar to mouse meis2 [U57343]; assay: as above; assay type: in vivo, rat
Description: as §1, §2, §3

[26] = test system: L1 retrotransposon ORF2 (HALO29 in Table 1, HALO32 in text); assay: as above; assay type: in vivo, rat
Description: as §1, §2, §3

[27] = test system: L1 retrotransposon mIvi2-rn38 (HALO32 in Table 1, HALO31 in text); assay: as above; assay type: in vivo, rat
Description: as §1, §2, §3

[28] = test system: Long interspersed repetitive DNA containing 7 ORFs (HALO31 in Table 1, HALO30 in text); assay: as above; assay type: in vivo, rat
Description: as §1, §2, §3

[29] = test system: long interspersed repetitive DNA sequence LINE3 (HALO30 in Table 1, HALO29 in text); assay: as above; assay type: in vivo, rat
Description: as §1, §2, §3

[30] = test system: HALO12, rat novel gene fragment, 83% homologous to mouse EGF repeat transmembrane protein; assay: as above; assay type: in vivo
Description: as §1, §2, §3

[31] = test system: HALO14, novel gene fragment, 72% similar to rat repetitive ribosomal DNA II 3′ to 45S pre-rRNA [X02822]; assay: as above; assay type: in vivo
Description: as §1, §2, §3

[32] = test system: HALO15, novel gene fragment, 97% similar to mouse gene fragment with 44% amino acid similarity to human sorting nexin-2; assay: as above; assay type: in vivo; settings: Wistar rat striatum, 0.041 mg/kg/d for 3 days continuous infusion, vs vehicle
Description: as §1, §2, §3

[33] = test system: HALO3, rat novel gene fragment, 495 bp; assay: as above; assay type: in vivo; settings: Wistar rat striatum, 0.041 mg/kg/d for 3 days continuous infusion, vs vehicle
Description: as §1, §2, §3

[34] = test system: HALO4, novel gene fragment, 649 bp; assay: as above; assay type: in vivo; settings: Wistar rat striatum, 0.041 mg/kg/d for 3 days continuous infusion, vs vehicle
Description: as §1, §2, §3

[35] = test system: HALO5, novel gene fragment, 539 bp; assay: as above; assay type: in vivo; settings: Wistar rat striatum, 0.041 mg/kg/d for 3 days continuous infusion, vs vehicle
Description: as §1, §2, §3

[36] = test system: rats; assay: Motor disturbances in rats treated for 28 days; assay type: in vivo, rat
[37] = test system: Inisotaol monophsphates; settings: 4-6 weeks following administration, decanoate dosing; cited from earlier work
[38] = test system: sigma receptors; settings: Seth et al, J Neurochem 70; cited from earlier work
[39] = Wistar rat striatum, 0.041 mg/kg/d for 3 days continuous infusion, vs vehicle
[40] = haloperidol-treated rats, striatum
[41] = haloperidol-treated rats, striatum, present studies

O=C(CCCN1CCC(O)(c2ccc(Cl)cc2)CC1)c1ccc(F)cc1 [haloperidol]
Haloperidol Effect on Transcript Level: HALO1 [1, 39]: −2.9
HALO1 expression decreased [1, 40]: 2.9 fold
Haloperidol Effect on Transcript Level: HALO10 [2, 39]: −2.0
HALO10 expression diminished [2, 40]: 2 fold
Haloperidol Effect on Transcript Level: HALO11 [3, 39]: −2.0
HALO11 expression increased [3, 40]: 4 fold
Haloperidol Effect on Transcript Level: HALO13 [4, 39]: +6.3
HALO13 expression increased [4, 40]: 6.3 fold
Haloperidol Effect on Transcript Level: HALO16 [5, 39]: −8
HALO16 expression diminished [5, 40]: 8 fold
Haloperidol Effect on Transcript Level: HALO17 [6, 39]: −10
HALO17 expression diminished [6, 40]: 10 fold
Haloperidol Effect on Transcript Level: HALO18 [7, 39]: −2.5
HALO18 expression diminished [7, 40]: 2.5 fold
Haloperidol Effect on Transcript Level: HALO19 Ribosomal protein L18a [8, 39]: +1.8
HALO19 (L18a) transcription increased [8, 40]: 1.8 fold
Haloperidol Effect on Transcript Level: HALO2 [9, 39]: −2
HALO2 expression decreased [9, 40]: 2 fold
Haloperidol Effect on Transcript Level: HALO20 Inositol 1.4.5-triphosphate 3-kinase [10, 39]: +2
HALO20 expression increased [10, 40]: 2 fold
Haloperidol Effect on Transcript Level: HALO21 CNPII [11, 39]: −3
HALO21 (CNPII) expression decreases [11, 40]: 3.0 folf
Haloperidol Effect on Transcript Level: HALO22 NGFI-B [12, 39]: +2.4
NGFI-B expression increased (under heading HALO22) [12, 40]: 2.4 fold
Haloperidol Effect on Transcript Level: HALO23 Neurogranin [13, 39]: +1.1
HALO23 (neurogranin) expression increased [13, 40]: 1.1 fold
Haloperidol Effect on Transcript Level: HALO24 V-1 protein [14, 39]: −2.0
HALO24 (V-1 protein) expression decreased [14, 40]: 2.0 fold
Haloperidol Effect on Transcript Level: HALO25 190 kDa ankyrin isoform [15, 39]: −2.0
HALO25 (190 kDA ankyrin isoform) expression decreased [15, 40]: 2.0 fold
Haloperidol Effect on Transcript Level: HALO26 Cathepsin S [16, 39]: −1.7
HALO26 (cathepsin S) expression decreased [16, 40]: 1.7 fold
Haloperidol Effect on Transcript Level: HALO27 D-Amino acid oxidase [17, 39]: −2.0
HALO27 (D-amino acid oxidase) expression decreased [17, 40]: 2.0 fold
Haloperidol Effect on Transcript Level: HALO28 Stomach nonmuscle Ca^+2 ATPase [18, 39]: +2
HALO28 (stomach nonmuscle Ca+2 ATPase) expression increased [18, 40]: 2 fold
Haloperidol Effect on Transcript Level: HALO33 NGF1-A [19, 39]: −3
HALO33 (NGF1-A) expression increased [19, 41]: 1.6 fold
Haloperidol Effect on Transcript Level: HALO34 JunB [20, 39]: +4
HALO34 (JunB) expression increased [20, 41]: 4 fold
HALO35 (synaptophysin) expression varied [21]: ~1 fold
Haloperidol Effect on Transcript Level: HALO6 [22, 39]: −2
HALO6 expression decreased [22, 40]: 2 fold
Haloperidol Effect on Transcript Level: HALO7 [23, 39]: −1.7
HALO7 expression diminished [23, 40]: 1.7 fold
Haloperidol Effect on Transcript Level: HALO8 [24, 39]: −2
HALO8 expression diminished [24, 40]: 2 fold
Haloperidol Effect on Transcript Level: HALO9 [25, 39]: +1.6
HALO9 expression increased [25, 40]: 1.6 fold
Haloperidol Effect on Transcript Level: HALO29 L1 retrotransposon ORF2 [26, 39]: −3.3
L1 retrotransposon ORF2 expression decreases (text: HALO32) [26, 40]: 3.3 fold
Haloperidol Effect on Transcript Level: HALO32 L1 retrotransposon mIvi2-rn38 [27, 39]: −5.5
L1 retrotransposon ml vi2-m38 expression decreases (text: HALO31) [27, 40]: 5.5 fold
Haloperidol Effect on Transcript Level: HALO31 Long interspersed repetitive DNA containing 7 ORFs [28, 39]: −3.5
long interspersed repetitive DNA containing 7 ORF expression decreases (text: HALO30) [28, 40]: 3.5 fold
Haloperidol Effect on Transcript Level: HALO30 LINE3 [29, 39]: −5
LINE3 expression decreases (text: HALO29) [29, 40]: 5 fold
Haloperidol Effect on Transcript Level: HALO12 [30, 39]: +3
HALO12 expression increased [30, 40]: 3 fold
Haloperidol Effect on Transcript Level: HALO14 [31, 39]: −5
HALO14 expression diminished [31, 40]: 5 fold
Haloperidol Effect on Transcript Level: HALO15 [32]: +1.0
Haloperidol Effect on Transcript Level: HALO3 [33]: −2.5
Haloperidol Effect on Transcript Level: HALO4 [34]: −3
Haloperidol Effect on Transcript Level: HALO5 [35]: −1.5
motor disturbances [36]: motor disturbances that parallel human pathology
Inositol monophosphates level [37]: decrease
binding activity with sigma receptors [38]: binding activity
